≈ marks a conversion by molar mass, not a printed value. Like-named read-outs stand apart in the source and are kept apart here.

Holding throughout (assay type): cell-based
Experiment [1] deals with E. coli strains. Nature of the experiment: CLSI overnight reference method, broth microdilution MIC. The note with it: for MIC (CLSI Ref): unit assumed. Background: In broth dilution the organism is exposed to a series of concentrations in liquid medium.
Experiment [2] relates to P. aeruginosa. Put plainly: Rapid AST by surface binding of europium probe, time resolved fluorescence. The note with it: Pseudomonas aeruginosa. As to the method: The x-axis of each graph denotes the concentrations of antimicrobial Amikacin (AMK) in micrograms/milliliter, and the y-axis denotes fluorescence from binding to bacteria surface. Growth check data measured by optical density (Absorbance at 600 nm) of the bacterial culture is denoted for each strain.
AST was performed by surface binding of probe followed by time resolved fluorescence. The P. aeruginosa strains were incubated at 35° C. in shaking conditions for 4 hours for attaining growth, and growth check was performed by measuring absorbance of the culture at 600 nm after 4 hours of growth.

The test system of experiment [3] is Bacteria. Nature of the experiment: Bacterial growth with or without resazurin during incubation, BacTiter-Glo luminescence. The note with it: 4 hours at 35° C., versus resazurin added after incubation. As to the method: FIG. 1 illustrates growth luminescence ratios post-incubation of microogranisms, where resazurin was introduced to one group of microorganisms before the initial incubation period and the other group was introduced to resazurin after the initial incubation period.
Bacteria were inoculated into 96-well microplates comprise cation-adjusted Mueller Hinton broth in the presence and absence of resazurin (alamarBlue®) and incubated at 35° C. for 4 hours. For wells that were not incubated with resazurin, the growth indicator was added immediately after the 4-hour incubation. BacTiter-Glo reagent (Promega, Madison, WI) was added to all wells and luminescence was measured. […] Thus, it can be advantageous to remove growth indicator from test wells during incubation.

[4] abbreviates: E. coli strain Clinical Sample 1.
[5] abbreviates: E. coli strain Clinical Sample 2.
[6] abbreviates: E. coli strain Clinical Sample 4.
Where [7] appears, read: E. coli strain Clinical Sample 5.
Where [8] appears, read: E. coli strain Clinical Sample 6.
The mark [9] stands for this setting: E. coli strain Clinical Sample 7.
Where [10] appears, read: E. coli strain Clinical Sample 8.
Where [11] appears, read: E. coli strain Clinical Sample 9.
The mark [12] stands for this setting: E. coli strain Clinical Sample 10.
Where [13] appears, read: E. coli strain Clinical Sample 11.
Setting [14] is: E. coli strain Clinical Sample 12.
[15] abbreviates: E. coli strain Clinical Sample 13.

As usually defined, the MIC is the least concentration at which growth counts as inhibited. For the compound `NCC[C@H](O)C(=O)N[C@@H]1C[C@H](N)[C@@H](O[C@H]2O[C@H](CN)[C@@H](O)[C@H](O)[C@H]2O)[C@H](O)[C@H]1O[C@H]1O[C@H](CO)[C@@H](O)[C@H](N)[C@H]1O` [AMK, Amikacin], the MIC (CLSI Ref) in experiment [1] (E. coli strain BEI 4.097), in experiment [1] (E. coli strain CDC Carba36), in experiment [1] (setting [4]), in experiment [1] (setting [5]), in experiment [1] (setting [6]) and in experiment [1] (setting [7]) was 4 µg/mL (≈ 6.83 µM) throughout. Moreover, the MIC (CLSI Ref) in experiment [1] (setting [8]) was 4 µg/mL (≈ 6.83 µM); in experiment [1] (setting [9]), 2 µg/mL (≈ 3.42 µM); in experiment [1] (setting [10]) it was 4 µg/mL (≈ 6.83 µM); in experiment [1] (setting [11]), 4 µg/mL (≈ 6.83 µM); in experiment [1] (setting [12]), 8 µg/mL (≈ 13.7 µM); in experiment [1] (setting [13]) it was 4 µg/mL (≈ 6.83 µM). Further, the MIC (CLSI Ref) in experiment [1] (setting [14]) and in experiment [1] (setting [15]) was 4 µg/mL (≈ 6.83 µM) throughout. Also, the MIC came to 8 µg/mL (≈ 13.7 µM) in experiment [2] (P. aeruginosa Strain 1, growth check value 2.18, 4 hours at 35° C., read-out: MIC) and 8 µg/mL (≈ 13.7 µM) in experiment [2] (P. aeruginosa Strain 2, no reliable MIC at growth checkpoint value 1.13, read-out: expected MIC).

Regarding `O=c1ccc2[n+]([O-])c3ccc(O)cc3oc-2c1` [resazurin, 7-hydroxy-10-oxidophenoxazin-10-ium-3-one], the “Effect of resazurin present during incubation on viable bacteria (BacTiter-Glo luminescence)” value in experiment [3] was “less luminescent signal was observed”.

As for Piperacillin/tazobactam [TZP], the MIC (CLSI Ref) in experiment [1] (E. coli strain BEI 4.097) was found to be 4 µg/mL; in experiment [1] (E. coli strain CDC Carba36), 128 µg/mL; in experiment [1] (setting [4]) it was 4 µg/mL; in experiment [1] (setting [5]), 8 µg/mL; in experiment [1] (setting [6]), 4 µg/mL; in experiment [1] (setting [7]) it was 4 µg/mL. Further, the MIC (CLSI Ref) in experiment [1] (setting [8]) is 2 µg/mL; in experiment [1] (setting [9]), 4 µg/mL; in experiment [1] (setting [10]), 32 µg/mL; in experiment [1] (setting [11]) it was over 128 µg/mL; in experiment [1] (setting [12]), 2 µg/mL; in experiment [1] (setting [13]), 2 µg/mL. Further, the MIC (CLSI Ref) in experiment [1] (setting [14]) worked out at 2 µg/mL; in experiment [1] (setting [15]) it was 32 µg/mL.

On to Trimethoprim-Sulfamethoxazole [SXT], for which the MIC (CLSI Ref) in experiment [1] (E. coli strain BEI 4.097) is under 0.5 µg/mL; in experiment [1] (E. coli strain CDC Carba36), under 0.5 µg/mL; in experiment [1] (setting [4]), under 0.5 µg/mL; in experiment [1] (setting [5]) it was 4 µg/mL; in experiment [1] (setting [6]) it was over 32 µg/mL; in experiment [1] (setting [7]) it was over 32 µg/mL. For the same compound, the MIC (CLSI Ref) was 2 µg/mL in experiment [1] (setting [8]); over 32 µg/mL in experiment [1] (setting [9]); under 0.5 µg/mL in experiment [1] (setting [10]); over 32 µg/mL in experiment [1] (setting [11]); over 32 µg/mL in experiment [1] (setting [12]); under 0.5 µg/mL in experiment [1] (setting [13]). The MIC (CLSI Ref) in experiment [1] (setting [14]) and in experiment [1] (setting [15]) was under 0.5 µg/mL in each case. The “Interpretation letter” value in experiment [1] (setting [5]) is listed as “R”.

For the origin of these results see patent publication US12203124B2, “Methods for improved rapid antimicrobial susceptibility testing” (priority 2016, dated 2025).
